ChEMBL document CHEMBL4627303, “Design, synthesis and evaluation of flurbiprofen-clioquinol hybrids as multitarget-directed ligands against Alzheimer's disease” (Bioorg Med Chem, 2020)

Assays:
[1] = molecular target: Amyloid-beta precursor protein (Homo sapiens) (UniProt P05067); test: Inhibition of Cu2+-induced HFIP-pretreated amyloid beta (1 to 42) (unknown origin) aggregation at 25 uM measured after 24 hrs by thioflavin-T fluorescence assay relative to control
[2] = molecular target: Amyloid-beta precursor protein (Homo sapiens) (UniProt P05067); test: Disaggregation of self-induced amyloid beta (1 to 42) (unknown origin) preformed fibrils at 25 uM measured after 24 hrs by thioflavin-T fluorescence assay relative to control
[3] = Antioxidant activity assessed as AAPH-induced radical scavenging activity by measuring trolox equivalents for oxygen radical absorbance capacity measured every minute for 90 mins by ORAC-FL assay; format: functional
[4] = molecular target: T1, Amine oxidase [flavin-containing] A (Homo sapiens, UniProt P21397); test: Inhibition of recombinant human MAOA expressed in baculovirus infected in BTI cells at 10 uM using kynuramine as substrate after 30 mins by fluorescence based assay relative to control; details: 0.5 h
T1 sequence (P21397 whole entry): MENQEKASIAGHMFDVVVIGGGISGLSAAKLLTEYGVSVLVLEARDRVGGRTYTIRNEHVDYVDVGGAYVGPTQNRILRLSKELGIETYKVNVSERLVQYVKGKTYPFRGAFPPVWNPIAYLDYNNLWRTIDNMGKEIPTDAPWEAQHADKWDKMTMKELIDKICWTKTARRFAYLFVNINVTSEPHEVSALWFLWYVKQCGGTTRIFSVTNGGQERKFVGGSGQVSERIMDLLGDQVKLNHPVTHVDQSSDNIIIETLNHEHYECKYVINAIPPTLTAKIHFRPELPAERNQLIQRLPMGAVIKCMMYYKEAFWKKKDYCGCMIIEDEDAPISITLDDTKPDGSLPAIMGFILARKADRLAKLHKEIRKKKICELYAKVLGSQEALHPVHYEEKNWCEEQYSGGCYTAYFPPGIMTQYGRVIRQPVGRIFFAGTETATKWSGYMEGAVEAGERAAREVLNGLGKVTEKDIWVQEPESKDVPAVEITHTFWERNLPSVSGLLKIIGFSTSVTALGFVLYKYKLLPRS

[5] = molecular target: Amyloid-beta precursor protein (Homo sapiens) (UniProt P05067); test: Inhibition of HFIP-pretreated amyloid beta (1 to 42) (unknown origin) self-aggregation at 25 uM after 24 hrs by thioflavin-T fluorescence assay relative to control
[6] = molecular target: T2, Amine oxidase [flavin-containing] B (Homo sapiens, UniProt P27338); test: Inhibition of recombinant human MAOB expressed in baculovirus infected in BTI cells at 10 uM using kynuramine as substrate after 30 mins by fluorescence based assay relative to control; details: 0.5 h
T2 sequence (P27338 whole entry): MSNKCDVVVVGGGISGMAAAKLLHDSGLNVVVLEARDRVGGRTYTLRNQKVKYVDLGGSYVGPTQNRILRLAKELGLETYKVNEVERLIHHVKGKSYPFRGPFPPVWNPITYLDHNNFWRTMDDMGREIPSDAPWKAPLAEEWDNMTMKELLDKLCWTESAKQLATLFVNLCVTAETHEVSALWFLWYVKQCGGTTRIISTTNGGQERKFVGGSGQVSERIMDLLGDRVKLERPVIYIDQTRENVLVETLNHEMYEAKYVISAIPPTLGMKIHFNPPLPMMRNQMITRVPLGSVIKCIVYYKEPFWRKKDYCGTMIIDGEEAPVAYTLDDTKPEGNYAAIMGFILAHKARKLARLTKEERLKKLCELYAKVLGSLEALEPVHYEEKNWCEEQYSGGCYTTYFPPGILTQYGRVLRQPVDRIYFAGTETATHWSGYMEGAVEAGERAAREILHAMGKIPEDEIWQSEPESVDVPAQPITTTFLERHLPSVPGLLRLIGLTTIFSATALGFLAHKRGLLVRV

[7] = molecular target: T2, Amine oxidase [flavin-containing] B; test: Inhibition of recombinant human MAOB expressed in baculovirus infected in BTI cells using kynuramine as substrate after 30 mins by fluorescence based assay; format: cell-based
BV-2 [8] = test: Cytotoxicity against LPS-induced mouse BV2 cells assessed as reduction in cell viability at 0.5 to 10 uM preincubated for 30 mins followed by LPS stimulation and measured after 24 hrs by MTT assay; format: cell-based; details: bv-2, 24 h
BV-2 [9] = test: Anti-neuroinflammatory activity in mouse BV2 cells assessed as inhibition of LPS-induced TNFalpha production at 10 uM preincubated for 30 mins followed by LPS stimulation measured after 24 hrs by ELISA relative to control; format: functional
BV-2 [10] = test: Anti-neuroinflammatory activity in mouse BV2 cells assessed as inhibition of LPS-induced NO production at 2.5 uM preincubated for 30 mins followed by LPS stimulation measured after 24 hrs by Griess reagent based assay relative to control; format: functional
BV-2 [11] = test: Anti-neuroinflammatory activity in mouse BV2 cells assessed as inhibition of LPS-induced NO production at 10 uM preincubated for 30 mins followed by LPS stimulation measured after 24 hrs by Griess reagent based assay relative to control; format: functional
BV-2 [12] = test: Effect on nitric oxide production in mouse BV2 cells at 0.5 to 10 uM measured after 30 mins by Griess reagent based […]; format: ADME, cell-based; details: bv-2, 0.5 h
BV-2 [13] = test: Cytotoxicity against mouse BV2 cells assessed as reduction in cell viability at 0.5 to 10 uM measured after 30 mins by MTT assay; format: cell-based; details: bv-2, 0.5 h
BV-2 [14] = test: Anti-neuroinflammatory activity in mouse BV2 cells assessed as inhibition of LPS-induced TNFalpha production at 2.5 uM preincubated for 30 mins followed by LPS stimulation measured after 24 hrs by ELISA relative to control; format: functional

Chain of Amyloid-beta precursor protein (Homo sapiens) (P05067 whole entry): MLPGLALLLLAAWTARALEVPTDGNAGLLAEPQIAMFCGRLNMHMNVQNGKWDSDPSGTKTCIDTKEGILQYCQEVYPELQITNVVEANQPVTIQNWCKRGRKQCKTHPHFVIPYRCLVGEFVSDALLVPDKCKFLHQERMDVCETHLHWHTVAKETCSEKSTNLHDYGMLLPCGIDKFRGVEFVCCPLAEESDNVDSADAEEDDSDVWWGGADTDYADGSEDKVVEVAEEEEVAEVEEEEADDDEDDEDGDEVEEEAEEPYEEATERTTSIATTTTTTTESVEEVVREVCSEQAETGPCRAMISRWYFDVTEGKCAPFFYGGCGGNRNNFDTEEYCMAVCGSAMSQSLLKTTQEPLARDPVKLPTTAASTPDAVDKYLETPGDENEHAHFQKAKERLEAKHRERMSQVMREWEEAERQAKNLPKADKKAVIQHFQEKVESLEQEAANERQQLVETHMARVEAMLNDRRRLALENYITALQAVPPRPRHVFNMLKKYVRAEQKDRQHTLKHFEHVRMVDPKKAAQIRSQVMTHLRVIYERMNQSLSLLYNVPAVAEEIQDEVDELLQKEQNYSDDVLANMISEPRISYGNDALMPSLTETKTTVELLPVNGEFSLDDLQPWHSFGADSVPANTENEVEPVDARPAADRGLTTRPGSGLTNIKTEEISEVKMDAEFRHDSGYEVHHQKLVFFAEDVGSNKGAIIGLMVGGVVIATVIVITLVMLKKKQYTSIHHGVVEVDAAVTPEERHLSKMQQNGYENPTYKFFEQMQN

Compound | inhibition [1] [%] | Activity [2] [%] | Activity [3] [µMequiv/µM] | inhibition at 10 µM [4] [%] | inhibition [5] [%] | inhibition at 10 µM [6] [%] | IC50 [7] [µM] | Activity (BV-2 [8]) | inhibition at 10 µM (BV-2 [9]) [%] | inhibition at 2.5 µM (BV-2 [10]) [%] | inhibition at 10 µM (BV-2 [11]) [%] | Activity (BV-2 [12]) | Activity (BV-2 [13]) | inhibition at 2.5 µM (BV-2 [14]) [%]
COC(=O)C(C)c1ccc(-c2ccc(NCc3cc(Br)cc(Br)c3O)cc2)c(F)c1 (stereo not given) | 38.3 | 35.9 | 1.42 | 17.9 | 57.9 | 16.4 | – | – | – | – | – | – | – | –
COC(=O)C(C)c1ccc(-c2ccc(NCc3cc(CN(C)C)cc(OC)c3O)cc2)c(F)c1 (stereo not given) | 38.3 | 49.3 | 2.07 | 17.8 | 58.2 | 36 | – | – | – | – | – | – | – | –
COC(=O)C(C)c1ccc(-c2ccc(NCc3cc(Br)ccc3O)cc2)c(F)c1 (stereo not given) | 32 | 36.6 | 1.37 | 29.3 | 37 | 28.4 | – | – | – | – | – | – | – | –
COC(=O)C(C)c1ccc(-c2ccc(NCc3cc(OC)ccc3O)cc2)c(F)c1 (stereo not given) | 43.6 | 53.3 | 2.05 | 28.4 | 73.6 | 33.4 | – | – | – | – | – | – | – | –
COC(=O)C(C)c1ccc(-c2ccc(NCc3ccccn3)cc2)c(F)c1 (stereo not given) | 37.8 | 35.5 | 1.15 | 36.8 | 48.3 | 45.8 | 16.6 | – | – | – | – | – | – | –
COC(=O)C(C)c1ccc(-c2ccc(NCc3cccc(CN4CCCCC4)c3O)cc2)c(F)c1 (stereo not given) | 42.4 | 43.3 | 2.02 | < 5 | 48.8 | < 5 | – | – | – | – | – | – | – | –
COC(=O)C(C)c1ccc(-c2ccc(NCc3nc(C)c(C)nc3C)cc2)c(F)c1 (stereo not given) | 22.5 | 18.3 | 1.69 | 20.4 | 27.5 | 42.5 | 15.1 | – | – | – | – | – | – | –
Oc1c(I)cc(Cl)c2cccnc12 | 40.1 | 51.1 | 0.54 | – | 62.4 | – | – | – | – | – | – | – | – | –
COC(=O)C(C)c1ccc(-c2ccc(NCc3cccc(CN(C)C)c3O)cc2)c(F)c1 (stereo not given) | 41.9 | 45.1 | 2.18 | 19.9 | 68.6 | < 5 | – | – | – | – | – | – | – | –
COC(=O)C(C)c1ccc(-c2ccc(NCc3ccc(OC)cc3O)cc2)c(F)c1 (stereo not given) | 30.6 | 25.6 | 1.96 | 11.2 | 32.8 | 22.9 | – | – | – | – | – | – | – | –
COC(=O)C(C)c1ccc(-c2ccc(NCc3cc(CN4CCCCC4)ccc3O)cc2)c(F)c1 (stereo not given) | 29.4 | 30.2 | 2.14 | 18.2 | 29.4 | 25.8 | – | – | – | – | – | – | – | –
COC(=O)C(C)c1ccc(-c2ccc(NCc3cc(Cl)ccc3O)cc2)c(F)c1 (stereo not given) | 41.9 | 41.9 | 1.32 | 30.6 | 48.3 | < 5 | – | – | – | – | – | – | – | –
CC(C(=O)O)c1ccc(-c2ccccc2)c(F)c1 (stereo not given) [FLURBIPROFEN] | 7.29 | 9.28 | 0.17 | – | – | – | – | Non-Toxic | 31.2 | 12.5 | 26.2 | Non-Toxic | Non-Toxic | 10.2
COC(=O)C(C)c1ccc(-c2ccc(NCc3cc(CN(C)C)ccc3O)cc2)c(F)c1 (stereo not given) | 43.7 | 51.2 | 1.92 | 22.4 | 43 | 32.8 | – | – | – | – | – | – | – | –
COC(=O)C(C)c1ccc(-c2ccc(NCc3cc(C)ccc3O)cc2)c(F)c1 (stereo not given) | 49.7 | 42.6 | 1.56 | 21.9 | 58.5 | 11.4 | – | – | – | – | – | – | – | –
COC(=O)C(C)c1ccc(-c2ccc(NCc3cc(NC(C)=O)ccc3O)cc2)c(F)c1 (stereo not given) | 24 | 27.1 | 1.65 | 18.7 | 39.2 | 46.2 | 16.3 | – | – | – | – | – | – | –
COc1cc(/C=C/C(=O)CC(=O)/C=C/c2ccc(O)c(OC)c2)ccc1O | 32.5 | – | – | – | 32.5 | – | – | – | – | – | – | – | – | –
COC(=O)C(C)c1ccc(-c2ccc(NCc3ccccc3O)cc2)c(F)c1 (stereo not given) | 42.9 | 44.1 | 1.51 | 15.9 | 24.7 | < 5 | – | – | – | – | – | – | – | –
COC(=O)C(C)c1ccc(-c2ccc(NCc3cccc(OC)c3O)cc2)c(F)c1 (stereo not given) | 39.9 | 41.7 | 1.68 | 10.5 | 46.2 | 11.7 | – | – | – | – | – | – | – | –
